Measured values taken from publication PMC3509539, “seco-Briarellinone and Briarellin S, Two New Eunicellin-Based Diterpenoids from the Panamanian Octocoral Briareum asbestinum” (Marine Drugs, 2012).
Where “and” joins values, the source holds several entries; their conditions need not be identical. Equal values may be shown once.

Tests used:
[1] = tested on: NO production by thioglycolate elicited peritoneal macrophages from C57Bl/6 mice stimulated with LPS; test: Inhibition of NO production induced by LPS in macrophages (Griess); format: cell-based, mouse (C57Bl/6); settings: LPS 1 μg/mL; for IC50: Mus musculus, Peritoneal macrophage, primary murine macrophages, compound added 1 h before the stimulus, NO after 24 h
Text: The anti-inflammatory properties of diterpenes from natural sources have been described previously. However, anti-inflammatory activity of the briarellins family has not been evaluated before. The inhibition of NO production is frequently used as an indicator of anti-inflammatory activity. NO is produced by a family of enzymes called NO synthases (NOS) and it mediates many physiological processes. Inflammatory conditions lead to production of high levels of NO regulated by the inducible NOS (iNOS) enzyme. NO is produced by many cell types in vitro in response to several stimuli such as microbial products (e.g., bacterial lipopolisacharide (LPS)), cytokines, viral proteins, among others. We evaluated the production of NO by primary murine macrophages stimulated with LPS (1 μg/mL) in the presence or absence of different concentrations of compounds 1–3. […] The levels of NO found at higher concentrations (20 μg/mL) of compound 1 might be attributed to the non pyrogen-free conditions of the isolation and purification process of compounds. Possible contaminations with potential microbial products in the compounds preparations disguise the inhibitory effect expected at these concentrations. […] Further studies are necessary to find out if compound 3 is able to inhibit other signaling pathways leading to the production of inflammatory mediators different than NO.
Figure 4 Inhibition of nitric oxide (NO) production induced by lipopolisacharides (LPS) in macrophages. […] (B) Cell viabilities were assessed using 3-(4,5-dimethylthiazol-2-yl)-2,5-diphenyltetrazolium bromide (MTT) assay after collection of the supernatant. […]
To determine the anti-inflammatory capacity of compounds 1–3, thioglycolate elicited macrophages from C57Bl/6 mice were used. […] The concentration of NO was measured using the Griess Reagent System from Promega. […]
Data are presented as mean ± S.E.M. Results were analyzed using a statistical software package (GraphPad Prism 5). […]

[2] = tested on: peritoneal macrophages from C57Bl/6 mice; test: Cytotoxicity testing, MTT assay; format: cell-based, mouse (C57Bl/6); settings: inhibitory concentrations 5–20 μg/mL, macrophages after collection of the supernatant
Protocol: Figure 4 Inhibition of nitric oxide (NO) production induced by lipopolisacharides (LPS) in macrophages. (A) Peritoneal macrophages from C57Bl/6 mice were treated with different concentrations of compounds 1–3 (1, 2, 5, 10, or 20 μg/mL) 1 h before the stimulus with LPS (1 μg/mL). After 24 h of stimulus with LPS, supernatants were collected for NO determination. (B) Cell viabilities were assessed using 3-(4,5-dimethylthiazol-2-yl)-2,5-diphenyltetrazolium bromide (MTT) assay after collection of the supernatant. Results represent mean ± S.E.M. and are representative of two different experiments. * P < 0.005 compared with LPS stimulus alone. C, control; Comp, compound. To evaluate the cytotoxicity of compounds 1–3, we used the MTT (Methylthiazolyldiphenyl-tetrazolium bromide) assay. Cell supernatants were removed for NO determination and were added to each well, 100 μL of MTT at a concentration of 0.5 mg/mL dissolved in RPMI. The assay plate was incubated overnight at 37 °C in 5% of CO2 atmosphere. In this assay the MTT is reduced to formazan by the activity of NAD-dependent dehydrogenase of living cell mitochondria to form a purple product. […] The color was analyzed at 570 nm using a micro-ELISA plate reader. The percent of viable cells was calculated using the formula: % viability = (ODsample × 100%)/(ODcontrol). […]

Question: Which “Effect on the production of NO induced by LPS in macrophages” value ([1]; 1, 2, 5, 10 or 20 μg/mL, 24 h) does the source give for `CC(=O)CC1OC2[C@@H]3C(C[C@H](C)[C@H](OC(C)=O)[C@H]13)[C@H](C)CO[C@]2(C)/C=C/C=O` (some centres unmarked) [compound 3, seco-asbestinin] here?
Answer: did not show any significant effect

Question: What does the source list for `C=C1CC2OC3C4C(CC(=O)C(C)(O)C24)C(C)COC3(C)C(OC(=O)CCCCCCC)CC1O` (centres unmarked) [compound 2, Briarellin S]?
Answer: Cell viability (MTT) [2]: do not interfere with the cell viability; IC50 [1]: 10 µg/mL and 20.4 µM

Question: For `CC(=O)CC1OC2C3C(CC(=O)C(C)(O)C13)C(C)COC2(C)C=CC=O` (centres unmarked) [compound 1, seco-Briarellinone], which “Cell viability (MTT)” value [2] is on record?
Answer: do not interfere with the cell viability

Question: And the IC50 [1]?
Answer: 1.71 µg/mL and 4.7 µM
